Reference: US20080300178A1, “Method For Treating Huntington's Disease by Inhibiting Dephosphorylation of Huntingtin at S421” (Insitut Curie, priority 2006, published 2008)
“Also recorded” adds a separate entry of the source.

Key:
[1] = system: BDNF-containing vesicles transport; test: BDNF-containing vesicle transport in primary cortical neurons expressing FL-htt-75Q (videomicroscopy); type: cell-based, rat; details: IGF-1 treatment
Protocol: (§1) Videomicroscopy Experiments and Analyses. For videoexperiments rat primary cortical neurons, +/+, and 109Q/109Q cells established from Hdh^Q111 knock-in mouse were prepared, cultured and transfected as previously described (Gauthier et al., 2004; Humbert et al., 2002; Saudou et al., 1998; Trettel et al., 2000). In some cases, primary cultures of cortical neurons are electroporated with the rat neuron Nucleofector® kit according to the supplier's manual (Amaxa, Cologne). Forskolin ([…]; Sigma) and IBMX ([…]; Sigma) were added to the cultures 5 hours after transfection.
(§2) Videomicroscopy experiments were done two or four days after transfection. Cells were co-transfected with BDNF-eGFP and various constructs of htt or the corresponding empty vectors with a DNA ratio of 1:4. Live videomicroscopy was carried out using an imaging system previously detailed (Gauthier et al., 2004). Cells were grown on glass coverslip that was mounted in a Ludin chamber. The microscope and the chamber were kept at 37° C. (33° C. for knock-in cells). Stacks of 10-15 images with a Z-step of 0.3 μm were acquired with a 100× PlanApo N.A. 1.4 oil immersion objective coupled to a piezo device (PI). Images were collected in stream mode using a Cool Snap HQ camera (Ropper Scientific) set at 2×2 binning with an exposure time of 50 to 100 ms (frequency of 2). […]

[2] = system: BDNF-containing vesicles transport; test: BDNF-containing vesicle transport in 109Q/109Q cells (videomicroscopy); type: cell-based, mouse; details: IGF-1 treatment
Protocol: as §1, §2

[3] = target: GST-huntingtin (amino acids 384 to 467 of human huntingtin fused to GST), phosphorylated at S421 by Akt (UniProt P42858)
[4] = target: GST-huntingtin (amino acids 384 to 467 of human huntingtin fused to GST), before phosphorylation (UniProt P42858)
[5] = system: endogenous huntingtin S421 phosphorylation; test: Phosphorylation of endogenous huntingtin at S421 in Jurkat T cells (Western blot); type: cell-based, human; details: ionomycin 2.5 μM
Protocol: (§3) Cell culture, transfection and drug treatments. Primary cultures of striatal neurons were prepared from E17 Sprague Dawley rats and transfected at 4 days in vitro by a modified calcium phosphate technique (Saudou et al., 1998). Mouse neuronal cells derived from wildtype huntingtin mice (neuronal cells, +/+) and from Hdh^Q109 knock-in mice (109Q/109Q) were cultured as previously described (Trettel et al., 2000) and transfected with Lipofectamine 2000 (Invitrogen, Breda, The Netherlands). When cotransfected (FIG. 3A), the ratio 480-17Q/Akt/CaNA-ΔCaM/CaNB was 1:0.5:1:1. Human HEK 293 cells were cultured in DMEM supplemented with 10% bovine calf serum (BCS) and were transfected by the calcium phosphate technique. SHSY-5Y cells and Jurkat T cells were grown in RPMI supplemented with 10% BCS. Jurkat T cells were transferred to tyrodes buffer (137 mM NaCl, 3 mM KCl, 20 mM Hepes, 2 mM MgCl2, 1 mM CaCl2, 5.6 mM glucose, 0.3 mg/ml BSA; 4×10^6 cells/ml) prior addition of FK506 (1 μM) and/or ionomycin (2.5 μM).
(§4) Western blot analysis. After transfection/incubation with drugs, cells were washed with ice cold phosphate-buffered saline prior to scraping and lysis. […] Quantification of the signal was performed by densitometric scanning of the film using ImageJ software.

[6] = system: endogenous huntingtin S421 phosphorylation; test: Immunofluorescence of phospho-S421-huntingtin in SHSY-5Y cells transfected with wild-type CaNA/CaNB; type: cell-based, human; details: 1 μM ionomycin, 15 min
Protocol: Immunofluorescence experiments. SHSY-5Y cells were grown on uncoated glass coverslips, transfected with wild-type CaNA/B for 24 hours and treated for 15 min with 1 μM ionomycin (Sigma) or left untreated. Cells were fixed with 4% paraformaldehyde-PHEM buffer for 20 min (in mM: PIPES, 120; HEPES, 50, EGTA, 20; Mg-acetate 4) and incubated with antiphospho-S421-huntingtin-763 (1:100) and anti-CaNA (1:200; Cat#C1956, Sigma) antibodies. Pictures were captured with a three-dimensional deconvolution imaging system as previously described (Gauthier et al., 2004). Mean fluorescence intensity of the phospho-S421 signal was next quantified using Metamorph software (Universal Imaging Corp, Princeton, N.J., USA). For each pair of cells (transfected/non transfected), signal from the transfected cell was standardized by giving a value of 100 to the non-transfected cell. Only non-mitotic cells of the same approximate size were considered. More than 30 cells in total were analyzed in two independent experiments.

[7] = system: Parkinson's disease; details: cited from earlier work
[8] = system: endogenous huntingtin S421 phosphorylation; test: Phosphorylation of S421 in primary striatal neurons (Western blot); type: cell-based; details: rat striatal neurons, 1 μM FK506
Protocol: as §3, §4

IGF-1: IGF-1, activator of the IGF-1/Akt pathway
mean velocity of BDNF-containing vesicles [1]: statistically significant increase in the velocity of BDNF vesicles; also recorded: significantly increases the mean velocity | pausing time of BDNF-containing vesicles [1]: decreased the pausing time; also recorded: decreases their pausing time | pausing time of BDNF-containing vesicles [2]: decreasing pausing time; also recorded: decreases pausing time | velocity of BDNF-containing vesicles [2]: statistically increasing velocity; also recorded: increases velocity

purified calcineurin (native protein isolated from bovine brain)
dephosphorylation of S421 (immunoblot with the anti-phospho-huntingtin-S421-763 antibody) [3]: calcineurin dephosphorylates S421 of huntingtin in vitro in a time and dose-dependent manner

recombinant Akt
phosphorylation of S421 (in vitro kinase assay, immunoblot) [4]: resulting in the phosphorylation of GST-huntingtin at S421

C[C@H](CCC(=O)O)C[C@H](C)C[C@H](C)C(=O)/C=C(\O)[C@H](C)C[C@H](C)C/C=C/[C@@H](C)[C@@H](O)[C@@H](C)[C@@H](O)C[C@@H]1CC[C@@](C)([C@H]2CC[C@@](C)([C@@H](C)O)O2)O1 [ionomycin]
S421 phosphorylation after ionomycin [5]: rapid dephosphorylation of huntingtin on S421 | huntingtin S421 phosphorylation (mean fluorescence intensity) [6]: reduction of huntingtin phosphorylation at S421 | huntingtin S421 phosphorylation (mean fluorescence intensity) ([6]; listed as Ionomycin): decreased huntingtin S421 phosphorylation

CCC(C)(C)C(=O)C(=O)N1CCC[C@H]1C(=O)OCCCc1cccnc1 [GPI-1046]
outcome of clinical trials [7]: have failed

C=CC[C@@H]1/C=C(\C)C[C@H](C)C[C@H](OC)[C@H]2O[C@@](O)(C(=O)C(=O)N3CCCC[C@H]3C(=O)O[C@H](/C(C)=C/[C@@H]3CC[C@@H](O)[C@H](OC)C3)[C@H](C)[C@@H](O)CC1=O)[C@H](C)C[C@@H]2OC [FK506]
time for which S421 phosphorylation remained sustained [8]: at least 6 hours
